# Source: patent publication US12090204B2, “Photodynamic therapy compositions and methods of use thereof” (Pinnacle Biologics, Inc., priority 2020, dated 2024)
# Several values for one entry are separate records, joined by “and”; a condition that tells them apart may be missing. Equal values may be shown once.
# What was measured:
# M. catarrhalis (−) = experiment: porfimer sodium aPDT, 48 hour biofilm culture; assay type: cell-based, Moraxella catarrhalis; conditions: 630 nm, kill at 75 J/cm2 (light dose 75-100 J/cm2), porfimer sodium 250 μg/mL
# Protocol: (§1) Bacteria were routinely cultured using tryptic soy broth or agar at 37° C. in a 5% CO2 incubator. Bacteria were isolated and suspended with 0.9% NaCl to an Optical Density (OD) of 0.1 taken at 630 nm, to generate the inoculum used for either planktonic or biofilm assays.
# (§2) The colony forming units (CFU) per mL of the starting inoculum for every experiment was determined by dilution plating. Control samples were exposed to laser at 630 nm in the absence of porfimer sodium, porfimer sodium in the absence of laser exposure, or in saline alone in the absence of porfimer sodium and 630 nm laser light. All experimental samples were dilution plated to enumerate viable CFU's. Three independent replicates were performed for each reaction condition per strain per assay. […]
# (§3) Bacteria were exposed to 630 nm laser light via a fiber optic with a lens affixed to the distal end to provide a uniform diverging light field. […] Power output of the laser was measured using a UDT/Gamma Scientific 371 optical power meter and an integrating sphere. […]
# (§4) Biofilms were formed on glass coupons in culture dishes containing a bacterial inoculum for 48 hours under conditions specific to the strain. […] Power output of the laser was measured using a UDT/Gamma Scientific 371 optical power meter and an integrating sphere. […]
# Moraxella catarrhalis = experiment: abraded skin wounds, culture swabs (Example 3); assay type: in vivo, Yorkshire pigs
# From the text: (§5) On Day −2 of the study, pigs were anesthetized and the skin aseptically prepared. Superficial wounds were created using the tape strip method until punctate bleeding was observed. Also on Day −2, eight wounds per pig were inoculated with one of three bacterial cultures (Haemophilus influenza, Moraxella catarrhalis, or Staphylococcus aureus) at a concentration of 10^7-10^8 CFUs per mL. There were two control sites on each side. […] The wounds were covered, analgesia in the form of buprenorphine (IM, 0.03 mg/kg) was provided, and the animals were recovered from anesthesia.
# (§6) On Day 0, culture swabs were collected from each wound prior to dosing. Six wounds per pig were treated with the test article and the laser light treatment. Culture swabs were collected from the test wounds 1 hour following laser light treatment and the animals were recovered from anesthesia. On Day 1, culture swabs were collected from the treated wounds and two wounds per pig were treated a second time with the test article and the laser light treatment. Culture swabs were collected from these test wounds 1 hour following laser light treatment and the animals were recovered from anesthesia. On Day 2, culture swabs were collected from each wound just prior to euthanasia.
# (§7) Porfimer sodium administration: to prepare the test article, 75 mg of porfimer sodium was reconstituted with the currently FDA approved method of 31.8 mL of 0.9% sodium chloride, resulting in a stock solution of 2.5 mg/mL. Due to concerns about stability of the solution, the solution was used immediately. A 10 ml solution at a concentration of 0.3 mg/ml (300 mcg/ml), in 0.9% Sodium Chloride Injection (USP) was prepared. 300 μg of porfimer sodium was applied as a saline solution to infected wounds (except controls) and incubated for 30 minutes prior to activation. The sites were exposed to a 630 nm laser light for up to 20 minutes. The light source, a 630PDT laser. Each wound was exposed to 200 J/cm^2.
# Haemophilus influenza = experiment: abraded skin wounds, culture swabs (Example 3); assay type: in vivo, Yorkshire pigs
# From the text: as §5, §6, §7
# Staphylococcus aureus = experiment: abraded skin wounds, culture swabs (Example 3); assay type: in vivo, Yorkshire pigs; conditions: for Log CFU/site, Sa: sites 2, 7: hydrogel formulation, treated twice (LPT)
# From the text: as §5, §6, §7
# A. baumannii (−) = experiment: porfimer sodium aPDT, planktonic culture; assay type: cell-based, Acinetobacter baumannii; conditions: 630 nm, 200 J/cm2, porfimer sodium 125 μg/mL
# Protocol: as §1
# (§8) Experiments using planktonic cultures were carried out using M. catarrhalis, as a standard for further comparisons and to determine the effective drug concentration, porfimer sodium incubation time and light dose parameters which would provide an effective cell kill at the level of 5-7 logs. Once determined the experiments were repeated for all other bacterial strains examined.
# (§9) The colony forming units (CFU) per mL of the starting inoculum for every experiment was determined by dilution plating. […]
# as §3, §4
# MRSA (+) [1] = experiment: porfimer sodium aPDT, 48 hour biofilm culture; assay type: cell-based, methicillin-resistant Staphylococcus aureus; conditions: 630 nm, kill at 100 J/cm2 (light dose 75-100 J/cm2), porfimer sodium 250 μg/mL
# Protocol: as §1, §2, §3, §4
# Y. intermedia (−) = experiment: porfimer sodium aPDT, planktonic culture; assay type: cell-based, Yersinia intermedia; conditions: 630 nm, 200 J/cm2, porfimer sodium 125 μg/mL
# Protocol: as §1, §8, §9, §3, §4
# Prevotella (−) = experiment: porfimer sodium aPDT, planktonic culture; assay type: cell-based; conditions: 630 nm, kill at 75 J/cm2 (light dose 50-100 J/cm2), porfimer sodium 150 μg/mL
# Protocol: as §1, §8, §9, §3, §4
# MRSA (+) [2] = experiment: porfimer sodium aPDT, planktonic culture; assay type: cell-based, methicillin-resistant Staphylococcus aureus; conditions: 630 nm, 200 J/cm2, porfimer sodium 125 μg/mL
# Protocol: as §1, §8, §9, §3, §4
# [3] = assay type: in vivo, Yorkshire pigs; conditions: abraded wounds, Example 3
# From the text: This study evaluated the antimicrobial activity and local safety of porfimer sodium when applied to abraded wounds in Yorkshire pigs.
# as §5
# [4] = 300 μg porfimer sodium, 30 minutes, 630 nm 200 J/cm^2
substance,measurement,setting,value
porfimer sodium,Rate of kill,M. catarrhalis (−),>6Log
same,antimicrobial activity when applied to inoculated wounds,Moraxella catarrhalis; [4],did not provide antimicrobial activity
same,"Log CFU/site, Mc","Moraxella catarrhalis; sites 3, 8: porfimer sodium in saline, treated once (LPO), day 2, terminal",3.1 × 10^6 Log CFU/site and 3.0 × 10^4 Log CFU/site
same,antimicrobial activity when applied to inoculated wounds,Haemophilus influenza; [4],did not provide antimicrobial activity
same,"Log CFU/site, Hi","Haemophilus influenza; sites 1, 6: hydrogel formulation, treated once (LPO), day 1, 24 h post tx",3.0 × 10^5 Log CFU/site
same,"Log CFU/site, Hi","Haemophilus influenza; sites 2, 7: hydrogel formulation, treated twice (LPT), day 0, 1 h-post tx",1.3 × 10^4 Log CFU/site and 1.2 × 10^2 Log CFU/site
same,"Log CFU/site, Hi","Haemophilus influenza; sites 2, 7: hydrogel formulation, treated twice (LPT), day 1, pre 2nd tx",2.0 × 10^4 Log CFU/site and 2.3 × 10^3 Log CFU/site
same,antimicrobial activity when applied to inoculated wounds,Staphylococcus aureus; [4],did not provide antimicrobial activity
same,"Log CFU/site, Sa","Staphylococcus aureus; day 1, 1 h-post 2nd tx",2.1 × 10^5 Log CFU/site and 2.2 × 10^4 Log CFU/site
same,"Log CFU/site, Sa","Staphylococcus aureus; day 2, terminal",1.2 × 10^5 Log CFU/site and 1.3 × 10^6 Log CFU/site
same,Rate of kill,A. baumannii (−),1Log
same,Rate of kill,MRSA (+) [1],7Log
same,Rate of kill,Y. intermedia (−),7Log
same,Rate of kill,Prevotella (−),7Log
same,Rate of kill,MRSA (+) [2],>6Log
same,"histopathological observations, treated sites vs control sites",[3],no significant difference between treated sites and control sites
